# Biological target: T1, α-glucosidase (Homo sapiens, UniProt P10253)
# T1 construct: α-glucosidase from lymphocytes isolated from healthy donors; from tissue; host or cells: lymphocytes from healthy donors' blood, sonicated homogenate
# Experiment: Human lysosomal glycosidase selectivity screening (lymphocyte homogenate)
# Type: biochemical
# Details: 1 mM, read-out: percentage of inhibition, α-Glu
# Experimental: In order to avoid undesired inhibitory side effects of a potential new drug, it has to be selective for a given target. The selectivity of the newly synthesized compounds 14, 15, and 33·HCl toward GCase was then investigated, evaluating their inhibition at 1 mM concentration toward six other lysosomal glycosidases (namely, α-and β-mannosidases, α- and β-galactosidases, α-fucosidase, and α-glucosidase) in cell homogenates (leucocytes or lymphocytes) isolated from healthy donors. […] Indeed, only moderate inhibitory activity (ca. 50%) was found toward human β-galactosidase for both piperidines 14 and 15, while negligible inhibitory activity was detected in all other cases. […]
# α-Mannosidase activity was measured in a flat-bottomed 96-well plate. […] The reaction was stopped by addition of sodium carbonate (200 μL; 0.5M, pH 10.7) containing Triton X -100 (0.0025 %), and the fluorescence 4 -methylumbelliferone release d by α-mannosidase activity was measured in SpectraMax M2 microplate reader ( λex=365 nm, λem=435 nm; Molecular Devices). […]
# β-Mannosidase activity was measured in a flat -bottomed 96 -well plate. […] The reaction was stopped by addition of sodium carbonate (200 μL; 0.5M, pH 10.7) containing Triton X -100 (0.0025 %), and the fluorescence of 4 -methylumbelliferone released by β-mannosidase activity was meas ured in SpectraMax M2 microplate reader ( λex=365 nm, λem=435 nm; […]
structure (smiles),measurement,value
"CCCCCCCC[C@H]1[C@@H](O)[C@H](O)[C@H](O)CN1CCCCCCCC [compound 14, (2S,3R,4R,5R)-1,2-Dioctylpiperidine-3,4,5-triol]",inhibition at 1000 µM,18%
